This note sets out measurements from patent US7981903B2, “2-[2-{phenylamino}-1H-pyrrolo[2,3-D]pyrimidin-4-yl)amino] benzamide derivatives as IGF-1R inhibitors for the treatment of cancer” (GlaxoSmithKline LLC, priority 2007, dated 2011).

The target of the test is T1, NIH-3T3 cells overexpressing human IR (Homo sapiens, UniProt P06213).
T1 construct: expressed in transfected cells; host or cells: NIH-3T3 (mouse fibroblasts)
The test can be described thus: IR cellular autophosphorylation (DELFIA). It is filed as cell-based. The note with it: 2 h compound, insulin 3 ug/ml for 15 minutes, IC50 category. The method in brief: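 Receptor autophosphorylation measured by DELFIA, capturing IGF-1R or IRβ and detecting with europium anti-pTyr, reported as percent of IGF-1- or insulin-stimulated signal. Compounds (30 uM to 1.5 nM) added 2 h before ligand, then 15 min stimulation (IGF-1 30 ng/ml or insulin 3 ug/ml).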

T1 sequence (P06213 28-1382): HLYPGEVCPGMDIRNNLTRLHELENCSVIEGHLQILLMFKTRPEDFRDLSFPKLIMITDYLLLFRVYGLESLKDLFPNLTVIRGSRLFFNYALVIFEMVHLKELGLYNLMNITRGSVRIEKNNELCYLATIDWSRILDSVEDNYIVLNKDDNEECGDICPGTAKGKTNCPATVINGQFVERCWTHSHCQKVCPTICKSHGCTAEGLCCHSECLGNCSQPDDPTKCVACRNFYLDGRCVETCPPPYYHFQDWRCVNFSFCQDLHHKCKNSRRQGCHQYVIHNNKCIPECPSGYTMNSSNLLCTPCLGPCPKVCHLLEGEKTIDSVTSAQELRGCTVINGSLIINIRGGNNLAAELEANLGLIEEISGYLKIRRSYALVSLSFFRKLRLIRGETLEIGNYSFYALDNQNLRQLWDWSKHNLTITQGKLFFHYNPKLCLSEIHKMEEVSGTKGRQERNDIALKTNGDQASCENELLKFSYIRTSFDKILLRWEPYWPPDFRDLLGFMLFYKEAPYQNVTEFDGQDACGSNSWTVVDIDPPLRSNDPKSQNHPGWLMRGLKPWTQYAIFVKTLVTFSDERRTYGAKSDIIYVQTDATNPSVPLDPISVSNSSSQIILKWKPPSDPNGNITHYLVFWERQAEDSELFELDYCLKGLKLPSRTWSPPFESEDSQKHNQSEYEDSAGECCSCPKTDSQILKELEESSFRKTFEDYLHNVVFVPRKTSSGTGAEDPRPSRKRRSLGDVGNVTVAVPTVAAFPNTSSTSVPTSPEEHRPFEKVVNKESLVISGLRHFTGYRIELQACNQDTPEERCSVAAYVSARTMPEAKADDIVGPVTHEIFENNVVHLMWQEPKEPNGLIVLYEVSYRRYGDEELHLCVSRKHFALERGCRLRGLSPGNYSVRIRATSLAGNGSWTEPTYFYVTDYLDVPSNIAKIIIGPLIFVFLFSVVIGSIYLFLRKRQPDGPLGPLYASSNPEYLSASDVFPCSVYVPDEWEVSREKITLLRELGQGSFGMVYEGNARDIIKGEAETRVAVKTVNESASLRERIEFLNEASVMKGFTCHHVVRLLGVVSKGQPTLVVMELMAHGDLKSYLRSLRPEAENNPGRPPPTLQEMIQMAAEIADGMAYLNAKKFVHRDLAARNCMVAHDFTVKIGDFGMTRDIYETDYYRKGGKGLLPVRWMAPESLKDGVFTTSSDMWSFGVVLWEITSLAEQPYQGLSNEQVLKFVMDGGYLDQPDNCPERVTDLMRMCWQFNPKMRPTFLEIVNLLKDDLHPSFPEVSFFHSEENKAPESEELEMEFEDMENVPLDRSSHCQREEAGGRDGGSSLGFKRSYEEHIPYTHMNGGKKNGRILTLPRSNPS

The term IC50 denotes the concentration that inhibits the measured activity by half. `COc1cc2c(cc1Nc1nc(Nc3cc(F)cc(F)c3C(N)=O)c3cc[nH]c3n1)CN(CCF)CC2` [Example 239, 2,4-difluoro-6-[(2-{[2-(2-fluoroethyl)-6-(methyloxy)-1,2,3,4-tetrahydro-7-isoquinolinyl]amino}-1H-pyrrolo[2,3-d]pyrimidin-4-yl)amino]benzamide] yielded an IC50 of over 500 nM.

In turn, `COc1cc(N2CCN(C(C)C)CC2)ccc1Nc1nc(Nc2ccc(F)c(F)c2C(N)=O)c2cc[nH]c2n1` [Example 94, 2,3-difluoro-6-[(2-{[4-[4-(1-methylethyl)-1-piperazinyl]-2-(methyloxy)phenyl]amino}-1H-pyrrolo[2,3-d]pyrimidin-4-yl)amino]benzamide] showed an IC50 of 100 to 500 nM.

Compound `CCCN(C)CC(=O)N1CCc2cc(OC)c(Nc3nc(Nc4cccc(F)c4C(=O)NC)c4cc[nH]c4n3)cc21` [Example 167, 2-fluoro-N-methyl-6-[(2-{[5-(methyloxy)-1-(N-methyl-N-propylglycyl)-2,3-dihydro-1H-indol-6-yl]amino}-1H-pyrrolo[2,3-d]pyrimidin-4-yl)amino]benzamide] showed an IC50 of 100 to 500 nM.

On to `CCCN1CCC=C(c2ccc(Nc3nc(Nc4cc(F)ccc4C(N)=O)c4cc[nH]c4n3)c(OC)c2)C1` [Example 70, 4-fluoro-2-[(2-{[2-(methyloxy)-4-(1-propyl-1,2,5,6-tetrahydro-3-pyridinyl)phenyl]amino}-1H-pyrrolo[2,3-d]pyrimidin-4-yl)amino]benzamide], for which the IC50 is under 100 nM.

As for `CNC(=O)c1c(F)cccc1Nc1nc(Nc2cc3c(cc2OC)CCN3C(=O)CN(C)C)nc2[nH]cc(F)c12` [Example 253, 2-[(2-{[1-(N,N-dimethylglycyl)-5-(methyloxy)-2,3-dihydro-1H-indol-6-yl]amino}-5-fluoro-1H-pyrrolo[2,3-d]pyrimidin-4-yl)amino]-6-fluoro-N-methylbenzamide], the IC50 is 100 to 500 nM.

Compound `COc1cc(N2CCOC[C@@H]2C)ccc1Nc1nc(Nc2ccc(F)cc2C(N)=O)c2cc[nH]c2n1` [Example 61, 5-fluoro-2-[(2-{[4-[(3S)-3-methyl-4-morpholinyl]-2-(methyloxy)phenyl]amino}-1H-pyrrolo[2,3-d]pyrimidin-4-yl)amino]benzamide] displayed an IC50 of under 100 nM.

In the case of `COc1cc(N2CCN(CCS(C)(=O)=O)CC2)c(C)cc1Nc1nc(Nc2cccc(F)c2C(N)=O)c2cc[nH]c2n1` [Example 52, 2-fluoro-6-({2-[(5-methyl-2-(methyloxy)-4-{4-[2-(methylsulfonyl)ethyl]-1-piperazinyl}phenyl)amino]-1H-pyrrolo[2,3-d]pyrimidin-4-yl}amino)benzamide], the half-inhibitory concentration (IC50) was over 500 nM.

In turn, `COc1cc(N2CCN(C(C)C)CC2)ccc1Nc1nc(Nc2cccc(F)c2C(N)=O)c2cc[nH]c2n1` [Example 46, 2-fluoro-6-[(2-{[4-[4-(1-methylethyl)-1-piperazinyl]-2-(methyloxy)phenyl]amino}-1H-pyrrolo[2,3-d]pyrimidin-4-yl)amino]benzamide] gave an IC50 of 100 to 500 nM.

For the compound `COc1cc(N2CCC[C@H](O)C2)ccc1Nc1nc(Nc2cc(F)ccc2C(N)=O)c2cc[nH]c2n1` [Example 74, 4-fluoro-2-[(2-{[4-[(3S)-3-hydroxy-1-piperidinyl]-2-(methyloxy)phenyl]amino}-1H-pyrrolo[2,3-d]pyrimidin-4-yl)amino]benzamide], the IC50 fell in the range of 100 to 500 nM.

As for `COc1cc(N2CCC(N3CCCC(F)(F)C3)CC2)ccc1Nc1nc(Nc2cc(F)ccc2C(N)=O)c2cc[nH]c2n1` [Example 77, 2-[(2-{[4-(3,3-difluoro-1,4′-bipiperidin-1′-yl)-2-(methyloxy)phenyl]amino}-1H-pyrrolo[2,3-d]pyrimidin-4-yl)amino]-4-fluorobenzamide], the IC50 is under 100 nM.

`COc1cc(N2CCC(N3CCN(CCS(C)(=O)=O)CC3)CC2)ccc1Nc1nc(Nc2cccc(F)c2C(N)=O)c2cc[nH]c2n1` [Example 115, 2-fluoro-6-[(2-{[2-(methyloxy)-4-(4-{4-[2-(methylsulfonyl)ethyl]-1-piperazinyl}-1-piperidinyl)phenyl]amino}-1H-pyrrolo[2,3-d]pyrimidin-4-yl)amino]benzamide]: the IC50 lay within 100 to 500 nM.

As for `COc1ccc(N2CCN(C(C)C)CC2)cc1Nc1nc(Nc2ccccc2C(N)=O)c2cc[nH]c2n1` [Example 10, 2-[(2-{[5-[4-(1-methylethyl)-1-piperazinyl]-2-(methyloxy)phenyl]amino}-1H-pyrrolo[2,3-d]pyrimidin-4-yl)amino]benzamide], the IC50 is 100 to 500 nM.

The compound `COc1cc2c(cc1Nc1nc(Nc3cc(F)cc(F)c3C(=O)NC(C)C)c3cc[nH]c3n1)N(C(=O)CN(C)C)CC2` [Example 153, 2-[(2-{[1-(N,N-dimethylglycyl)-5-(methyloxy)-2,3-dihydro-1H-indol-6-yl]amino}-1H-pyrrolo[2,3-d]pyrimidin-4-yl)amino]-4,6-difluoro-N-(1-methylethyl)benzamide] showed an IC50 of over 500 nM.

In the case of `CCCN1CCC(COc2ccc(Nc3nc(Nc4cccc(F)c4C(N)=O)c4cc[nH]c4n3)c(OC)c2)CC1` [Example 206, 2-fluoro-6-({2-[(2-(methyloxy)-4-{[(1-propyl-4-piperidinyl)methyl]oxy}phenyl)amino]-1H-pyrrolo[2,3-d]pyrimidin-4-yl}amino)benzamide], the IC50 fell in the range of 100 to 500 nM.

Take `CCNC(=O)c1c(F)cccc1Nc1nc(Nc2cc3c(cc2OC)CCN3C(=O)CN(C)C)nc2[nH]ccc12` [Example 126, 2-[(2-{[1-(N,N-dimethylglycyl)-5-(methyloxy)-2,3-dihydro-1H-indol-6-yl]amino}-1H-pyrrolo[2,3-d]pyrimidin-4-yl)amino]-N-ethyl-6-fluorobenzamide]: the IC50 fell in the range of 100 to 500 nM.

Take `CCCN1CCC(c2ccc(Nc3nc(Nc4cc(F)c(F)cc4C(N)=O)c4cc[nH]c4n3)c(OC)c2)CC1` [Example 98, 4,5-difluoro-2-[(2-{[2-(methyloxy)-4-(1-propyl-4-piperidinyl)phenyl]amino}-1H-pyrrolo[2,3-d]pyrimidin-4-yl)amino]benzamide]: the IC50 was under 100 nM.

For `CNC(=O)c1c(F)cccc1Nc1nc(Nc2cc3c(cc2OC)N(C(=O)CN(C)C)CC3)nc2[nH]ccc12` [Example 198, 2-[(2-{[1-(N,N-dimethylglycyl)-6-(methyloxy)-2,3-dihydro-1H-indol-5-yl]amino}-1H-pyrrolo[2,3-d]pyrimidin-4-yl)amino]-6-fluoro-N-methylbenzamide], the IC50 was over 500 nM.

For `CCCN1CCC=C(c2ccc(Nc3nc(Nc4cc(F)ccc4C(=O)N[C@@H](C)CC)c4cc[nH]c4n3)c(OC)c2)C1` [Example 87, 4-fluoro-2-[(2-{[2-(methyloxy)-4-(1-propyl-1,2,5,6-tetrahydro-3-pyridinyl)phenyl]amino}-1H-pyrrolo[2,3-d]pyrimidin-4-yl)amino]-N-[(1S)-1-methylpropyl]benzamide], the half-inhibitory concentration (IC50) was over 500 nM.

Turning to `Cc1cc2c(cc1Nc1nc(Nc3cccc(F)c3C(N)=O)c3cc[nH]c3n1)N(C(=O)CN(C)C)CCC2` [Example 246, 2-[(2-{[1-(N,N-dimethylglycyl)-6-methyl-1,2,3,4-tetrahydro-7-quinolinyl]amino}-1H-pyrrolo[2,3-d]pyrimidin-4-yl)amino]-6-fluorobenzamide], the IC50 was in the range of 100 to 500 nM.

In turn, `COc1cc2c(cc1Nc1nc(Nc3cccc(F)c3C(N)=O)c3cc[nH]c3n1)CCN2C(=O)CN(C)C` [Example 197, 2-[(2-{[1-(N,N-dimethylglycyl)-6-(methyloxy)-2,3-dihydro-1H-indol-5-yl]amino}-1H-pyrrolo[2,3-d]pyrimidin-4-yl)amino]-6-fluorobenzamide] displayed an IC50 of over 500 nM.

For `COc1cc(N2CCN(C(C)C)CC2)c(OC)cc1Nc1nc(Nc2cc(F)ccc2C(N)=O)c2cc[nH]c2n1` [Example 82, 4-fluoro-2-[(2-{[4-[4-(1-methylethyl)-1-piperazinyl]-2,5-bis(methyloxy)phenyl]amino}-1H-pyrrolo[2,3-d]pyrimidin-4-yl)amino]benzamide], the IC50 fell in the range of 100 to 500 nM.

The compound `CNC(=O)c1c(F)cccc1Nc1nc(Nc2cc3c(cc2OC)C(C)(C)CN3C(=O)CN(C)C)nc2[nH]ccc12` [Example 127, 2-[(2-{[1-(N,N-dimethylglycyl)-3,3-dimethyl-5-(methyloxy)-2,3-dihydro-1H-indol-6-yl]amino}-1H-pyrrolo[2,3-d]pyrimidin-4-yl)amino]-6-fluoro-N-methylbenzamide] displayed an IC50 of under 100 nM.

`COc1cc(N2CCN(C(C)C)CC2)ccc1Nc1nc(Nc2cc(F)cc(OC)c2C(N)=O)c2cc[nH]c2n1` [Example 88] showed an IC50 of over 500 nM.

Consider `COc1cc(N2CCN(C(C)C)CC2)ccc1Nc1nc(Nc2cc(Cl)cc(F)c2C(N)=O)c2cc[nH]c2n1` [Example 93, 4-chloro-2-fluoro-6-[(2-{[4-[4-(1-methylethyl)-1-piperazinyl]-2-(methyloxy)phenyl]amino}-1H-pyrrolo[2,3-d]pyrimidin-4-yl)amino]benzamide], for which the IC50 was 100 to 500 nM.

With `COc1cc(N2CCN(CC3CC3)CC2)ccc1Nc1nc(Nc2cc(F)ccc2C(N)=O)c2cc[nH]c2n1` [Example 81, 2-[(2-{[4-[4-(cyclopropylmethyl)-1-piperazinyl]-2-(methyloxy)phenyl]amino}-1H-pyrrolo[2,3-d]pyrimidin-4-yl)amino]-4-fluorobenzamide], the IC50 fell in the range of 100 to 500 nM.

With `COc1cc(N2CCCN(C)CC2)ccc1Nc1nc(Nc2cccc(F)c2C(N)=O)c2cc[nH]c2n1` [Example 209, 2-fluoro-6-[(2-{[4-(4-methylhexahydro-1H-1,4-diazepin-1-yl)-2-(methyloxy)phenyl]amino}-1H-pyrrolo[2,3-d]pyrimidin-4-yl)amino]benzamide], the IC50 fell in the range of 100 to 500 nM.

For the compound `COc1cc(N2CCC(N3CCN(CCF)CC3)CC2)ccc1Nc1nc(Nc2cccc(F)c2C(N)=O)c2cc[nH]c2n1` [Example 114, 2-fluoro-6-[(2-{[4-{4-[4-(2-fluoroethyl)-1-piperazinyl]-1-piperidinyl}-2-(methyloxy)phenyl]amino}-1H-pyrrolo[2,3-d]pyrimidin-4-yl)amino]benzamide], the half-inhibitory concentration (IC50) was under 100 nM.
